In article PMC7806935, “Exosite inhibition of ADAMTS-5 by a glycoconjugated arylsulfonamide” (Scientific Reports, 2021):

Legend:
ADAMTS-4 [1] = target: T1, ADAMTS-4 (Homo sapiens, UniProt O75173); experiment: Versican digestion assay (V1-5GAG, sandwich ELISA), ADAMTS-4; assay type: biochemical; details: protein substrate V1-5GAG; mean ± SEM (n = 3); read-out: IC50 (μM) V1-5GAG ATS4
T1 construct: made in house
T1 sequence (O75173 213-837): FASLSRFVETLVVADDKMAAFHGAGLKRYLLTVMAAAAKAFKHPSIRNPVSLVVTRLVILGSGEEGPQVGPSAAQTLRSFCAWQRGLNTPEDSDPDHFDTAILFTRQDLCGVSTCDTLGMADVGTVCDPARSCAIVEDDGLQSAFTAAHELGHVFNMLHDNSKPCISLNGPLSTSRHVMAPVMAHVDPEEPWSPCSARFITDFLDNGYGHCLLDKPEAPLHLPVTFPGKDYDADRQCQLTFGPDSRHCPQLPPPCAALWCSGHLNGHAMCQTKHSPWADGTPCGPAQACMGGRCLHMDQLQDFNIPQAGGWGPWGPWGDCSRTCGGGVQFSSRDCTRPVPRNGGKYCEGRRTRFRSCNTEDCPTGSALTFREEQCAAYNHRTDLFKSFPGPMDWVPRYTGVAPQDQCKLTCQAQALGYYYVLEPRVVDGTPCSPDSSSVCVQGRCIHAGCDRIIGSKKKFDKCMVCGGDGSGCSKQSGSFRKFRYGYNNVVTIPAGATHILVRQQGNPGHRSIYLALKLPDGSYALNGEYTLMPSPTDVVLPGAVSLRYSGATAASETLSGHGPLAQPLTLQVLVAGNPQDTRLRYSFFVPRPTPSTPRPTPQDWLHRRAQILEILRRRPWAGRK
Method: (§1) All enzyme assays were conducted in TNC-B buffer (50 mM Tris–HCl, pH 7.5, 150 mM NaCl, 10 mM CaCl2, and 0.02% NaN3) at 37 °C. To avoid the formation of inhibitor aggregates, the detergent Brij-35 (0.05%) was added to the assay buffer. No aggregation was visually observed at concentrations up to 2 mM. The inhibitor stock solutions in DMSO (10 mM) were diluted at different concentrations in assay buffer and incubated with ADAMTS-4 or ADAMTS-5 for 2 h at 37 °C. Percent of inhibition was calculated from control reactions containing only DMSO. IC50 values were determined using the formula: vi/v0 = 1/(1 + [I]/IC50) where vi is the initial velocity of substrate cleavage in the presence of the inhibitor at concentration [I] and v0 is the initial velocity in the presence of an equal concentration (v/v) of DMSO.
ADAMTS-5 full-length (FL) (final concentration 0.4 nM), ADAMTS-5 MDTCS (0.4 nM) ADAMTS-5 MD (26 nM) or ADAMTS-4 (5.5 nM) were incubated with different concentrations of inhibitors or DMSO for 2 h at 37 °C in TNC-B buffer before addition of V1-5GAG (50 nM). At different time points (0–20 min), sub-samples were removed and reactions were stopped with EDTA. Maxisorp plates (VWR, Lutterworth, UK) were coated with 5 μg/mL anti-DPEEAE neoepitope antibody (Cat n. PA1-1748A, Life Technologies, Paisley, UK) in carbonate buffer pH 9.6 (16 h, 4 °C). This neoepitope antibody specifically recognizes the N-terminal versican fragment versikine, generated when ADAMTS-5 cleaves versican at the Glu441↓442Ala bond. Washing steps were performed in triplicate with 300 μL phosphate buffered-saline (PBS) containing 0.1% Tween-20 between each step. Plates were blocked with 3% bovine serum albumin (BSA)/PBS for 2 h, at RT. The samples from the digestion experiments were diluted in 3% BSA/PBS and added to the plate (100 μL, 2 h, RT). Bound versikine fragments were detected using anti-G1 monoclonal antibody (Cat n. ab171887, Abcam, Cambridge, UK) (3 μg/mL in 0.5% BSA/PBS, 1.5 h, RT), followed by horseradish peroxidase (HRP)-conjugated anti-mouse antibodies (Cat. N. P044701-2, Agilent Technologies LTD, Cheadle, UK) (2.4 μg/mL, 1 h, RT). The assay was developed by addition of o-phenylenediamine dihydrochloride (OPD, Cat n. 34006, Sigma Aldrich, Gillingham, UK) for 10 min and reactions were stopped with 2 M H2SO4. The absorbance was measured at 492 nm using a BioTeK Epoch (BioTek, Swindon, UK) plate reader. For each dilution, the amount of neoepitope generated was derived from a standard curve (0–1.56 nM) of V1-5GAG completely digested with ADAMTS-5. Initial velocities were calculated from the concentration of versikine generated as a function of reaction time and IC50 values were determined.
For inhibition studies, initial rates of proteolysis (< 20% cleavage) were analyzed between 0 and 20 min. For determination of the specificity constants (kcat/Km), digestion reactions were allowed to occur to completion (0–2 h). Data were analyzed as previously described.

ADAMTS-4 [2] = target: T1, ADAMTS-4; experiment: QF peptide cleavage assay, ADAMTS-4; assay type: biochemical; details: 12-residue QF peptide substrate; mean ± SEM (n = 3); read-out: IC50 (μM) QF peptide ATS4
Method: as §1
QF peptide cleavage assays were conducted in 96-well black microtiter plates (Scientific Laboratories Supplies Ltd, Wilford, UK) using a Fluostar Omega microplate reader (BMG Labtech, Aylesbury, UK). The activity of ADAMTS-4 (1 nM) and -5 (5 nM) was monitored for 2 h using the fluorescent peptide substrates fluorescein 5(6)-carbonyl-Ala-Glu-Leu-[…]-Gly-Arg-Pro-Ile-Ser-Ile-Ala-Lys-N,N,N0,N0-tetramethyl-6-carboxyrhodamine-NH2 (FAM-AE ~ LQGRPISIAK-TAMRA, ADAMTS-4) and fluorescein 5(6)-carbonyl-Thr-Glu-Ser-Glu ~ Ser-Arg-Gly-Ala-Ile-Tyr-Lys-Lys-N,N,N0,N0-tetramethyl-6-carboxyrhodamine-NH2 (FAM-TESE ~ SRGAIYKK-TAMRA, ADAMTS-5) (custom-synthesized by Bachem, Bubendorf, Switzerland) with an excitation wavelength of 485 nm and an emission wavelength of 538 nm. Final substrate concentrations were 1 μM and 40 μM for ADAMTS-4 and -5, respectively. Fluorescence was expressed in relative fluorescence units (RFU) and normalized against a blank containing only buffer and substrate. Emission spectra were recorded at several concentrations of each compound to exclude auto-fluorescence and maximal inhibitor concentrations were selected accordingly.

Row | IC50 (ADAMTS-4 [1]) [µM] | IC50 (ADAMTS-4 [2]) [µM] | SMILES
1 | > 100 | > 50 | CCC(C)N(Cc1cn(CCCOC2OC(CO)C(O)C(O)C2NC(C)=O)nn1)S(=O)(=O)c1ccc(-c2ccccc2)cc1 (mixture of isomers) [Compound 4b]
2 | > 100 | > 50 | CCC(C)N(Cc1cn(CCCOC(=O)c2ccccc2)nn1)S(=O)(=O)c1ccc(-c2ccccc2)cc1 (racemic) [Compound 6]
